The values below are quoted from earlier work in US20010027177A1, “Pharmaceutical composition containing a small or medium size peptide” (priority 2000, published 2001).

Bounds are passed on as bounds.

For series [1] the following is noted: solutions free from preservative; polystyrene, polypropylene and glass tubes; 24 hours at room temperature.
For series [2] the following is noted: adsorption to glass bottles and plastic tubing used in giving sets.

Regarding `NC(=O)CC[C@@H]1NC(=O)[C@H](Cc2ccccc2)NC(=O)[C@H](Cc2ccc(O)cc2)NC(=O)CCSSC[C@@H](C(=O)N2CCC[C@H]2C(=O)N[C@H](CCCN=C(N)N)C(=O)NCC(N)=O)NC(=O)[C@H](CC(N)=O)NC1=O` [desmopressin, 1-deamino-8-D-arginin-vasopressin], in series [1], the “loss of active principle because of adsorption by the walls” value was “lose about the half of active principle”.

As for benzalkonium chloride, in the series with nasal ciliar motility, the “effect on nasal ciliar motility” value was “irreversible suppression of the nasal ciliar motility”.

Consider “insulin: peptide drug cited for adsorption to glass bottles and plastic tubing”, for which the “losses of activity/potency because of adsorption” value in series [2] is ≤ 78.8%.
